Experimental findings from US9428500B2, “Alpha-carbolines for the treatment of cancer” (UNIVERSITA' DEGLI STUDI DI MILANO—BICOCCA, priority 2012, dated 2016) are described below.

Structures are written as SMILES.

For the test, the system named is parental untransformed BaF3 cells. In words: Tritiated thymidine uptake cell proliferation assay, parental BaF3. The settings on record: Mus musculus, BaF3; 3H-thymidine uptake, 72 h, medium with IL-3. The class given is cell-based.
A word on the IC50: it is the point on the concentration scale where inhibition reaches its midpoint. `CN1CCN(c2ccc(-c3ccc4[nH]c5nccc(/C=C/c6ccc(C(F)(F)F)cc6)c5c4c3)cc2)CC1` [Example 14, (E)-6-(4-(4-Methylpiperazin-1-yl)phenyl)-4-(2-(4-(trifluoromethyl)phenyl)vinyl)-9H-pyrido[2,3-b]indole]: the IC50 was > 25000 nM. The same measure for `CN1CCN(c2ccc(-c3ccc4[nH]c5nccc(-c6ccc(-c7ccccc7)cc6F)c5c4c3)cc2)CC1` [Example 15, 4-(3-Fluoro-biphenyl-4-yl)-6-[4-(4-methylpiperazin-1-yl)-phenyl]-9H-pyrido[2,3-b]indole]: 6300 nM; for `CN1CCN(c2ccc(-c3ccc4[nH]c5nccc(-c6cccc(-c7ccccc7)c6)c5c4c3)cc2)CC1` [Example 17, 4-Biphenyl-3-yl-6-[4-(4-methylpiperazin-1-yl)-phenyl]-9H-pyrido[2,3-b]indole]: 2700 nM; for `CN1CCN(c2ccc(-c3ccc4[nH]c5nccc(/C=C/c6ccccc6F)c5c4c3)cc2)CC1` [Example 18, (E)-4-(2-(2-Fluorophenyl)vinyl)-6-(4-(4-methylpiperazin-1-yl)phenyl)-9H-pyrido[2,3-b]indole]: 5100 nM. With `CN1CCN(c2ccc(-c3ccc4[nH]c5nccc(/C=C/c6ccccc6Cl)c5c4c3)cc2)CC1` [Example 19, (E)-4-(2-(2-Chlorophenyl)vinyl)-6-(4-(4-methylpiperazin-1-yl)phenyl)-9H-pyrido[2,3-b]indole], the half-inhibitory concentration (IC50) was determined as 2000 nM. With `CN1CCC(N2CCN(c3ccc(-c4ccc5[nH]c6nccc(-c7ccc(Cc8ccccc8)cc7)c6c5c4)cc3)CC2)CC1` [Example 21, 4-(4-Benzylphenyl)-6-(4-(4-(1-methylpiperidin-4-yl)piperazin-1-yl)phenyl)-9H-pyrido[2,3-b]indole], the IC50 turned out to be 3700 nM. As for `CN1CCC(N2CCN(c3ccc(-c4ccc5[nH]c6nccc(/C=C/c7ccccc7C(F)(F)F)c6c5c4)cc3)CC2)CC1` [Example 22, (E)-6-(4-(4-(1-Methylpiperidin-4-yl)piperazin-1-yl)phenyl)-4-(2-(2-(trifluoromethyl)phenyl)vinyl)-9H-pyrido[2,3-b]indole], the figure is 3900 nM; as for `CN1CCN(c2ccc(-c3ccc4[nH]c5nccc(-c6ccc(C(=O)c7ccccc7)cc6)c5c4c3)cc2)CC1` [Example 23, (4-{6-[4-(4-Methylpiperazin-1-yl)-phenyl]-9H-pyrido[2,3-b]indol-4-yl}-phenyl)-phenyl-methanone], 2300 nM.

As for `CN1CCN(c2ccc(-c3ccc4[nH]c5nccc(-c6ccc(-c7cccc8ccccc78)cc6)c5c4c3)cc2)CC1` [Example 24, 6-[4-(4-Methylpiperazin-1-yl)-phenyl]-4-(4-naphthalen-1-yl-phenyl)-9H-pyrido[2,3-b]indole], the IC50 stood at 18000 nM. As for `CN1CCN(c2ccc(-c3ccc4[nH]c5nccc(/C(=C/c6ccccc6)c6ccccc6)c5c4c3)cc2)CC1` [Example 25, (E)-4-(1,2-Diphenylvinyl)-6-[4-(4-methylpiperazin-1-yl)-phenyl]-9H-pyrido[2,3-b]indole], the IC50 amounted to 7500 nM. For the compound `COc1ccc(Cc2ccc(-c3ccnc4[nH]c5ccc(-c6ccc(N7CCN(C)CC7)cc6)cc5c34)cc2)c(OC)c1` [Example 26, 4-[4-(2,4-Dimethoxybenzyl)phenyl]-6-[4-(4-methylpiperazin-1-yl)-phenyl]-9H-pyrido[2,3-b]indole], the IC50 is 630 nM. As for `COc1ccccc1/C=C(\C)c1ccnc2[nH]c3ccc(-c4ccc(N5CCN(C)CC5)cc4)cc3c12` [Example 27, (E)-4-[1-(2-Methoxyphenyl)-prop-1-en-2-yl]-6-[4-(4-methylpiperazin-1-yl)-phenyl]-9H-pyrido[2,3-b]indole], the IC50 worked out at 2400 nM. As to `C/C(=C\c1ccccc1)c1ccnc2[nH]c3ccc(-c4ccc(N5CCN(C)CC5)cc4)cc3c12` [Example 28, (E)-6-(4-(4-methylpiperazin-1-yl)phenyl)-4-(1-phenylprop-1-en-2-yl)-9H-pyrido[2,3-b]indole], the IC50 was 800 nM.

Consider `CN1CCN(c2ccc(-c3ccc4[nH]c5nccc(/C=C/c6ccccc6NS(C)(=O)=O)c5c4c3)cc2)CC1` [Example 29, N-[(E)-2-(2-{6-[4-(4-Methylpiperazin-1-yl)-phenyl]-9H-pyrido[2,3-b]indol-4-yl}-vinyl)-phenyl]-methanesulfonamide], for which the IC50 is 680 nM. With `CC/C=C(\c1ccccc1)c1ccnc2[nH]c3ccc(-c4ccc(N5CCN(C)CC5)cc4)cc3c12` [Example 30, (E)-6-[4-(4-Methylpiperazin-1-yl)-phenyl]-4-(1-phenyl-but-1-enyl)-9H-pyrido[2,3-b]indole], the half-maximal inhibitory concentration (IC50) worked out at 220 nM. As for `CC(C)[Si](C=Cc1ccnc2[nH]c3ccc(-c4ccc(N5CCN(C)CC5)cc4)cc3c12)(C(C)C)C(C)C` [Example 32, (E) and (Z)-6-(4-(4-methylpiperazin-1-yl)phenyl)-4-(2-(triisopropylsilyl)vinyl)-9H-pyrido[2,3-b]indole], the figure is 6900 nM; as for `CN1CCN(c2ccc(-c3ccc4[nH]c5nccc(-c6ccc(C(O)c7ccccc7)cc6)c5c4c3)cc2)CC1` (stereo not drawn) [Example 33, (4-{6-[4-(4-Methylpiperazin-1-yl)-phenyl]-9H-pyrido[2,3-b]indol-4-yl}-phenyl)-phenyl-methanol], 1000 nM; as for `CN1CCN(c2ccc(-c3ccc4[nH]c5nccc(Nc6ccccc6[N+](=O)[O-])c5c4c3)cc2)CC1` [Example 34, {6-[4-(4-Methylpiperazin-1-yl)-phenyl]-9H-pyrido[2,3-b]indol-4-yl}-(2-nitro-phenyl)-amine], 860 nM. Regarding `CN1CCN(c2ccc(-c3ccc4[nH]c5nccc(Nc6cccc([N+](=O)[O-])c6)c5c4c3)cc2)CC1` [Example 35, 6-(4-(4-Methylpiperazin-1-yl)phenyl)-N-(3-nitrophenyl)-9H-pyrido[2,3-b]indol-4-amine], the IC50 was determined as 480 nM. `CN1CCC(N2CCN(c3ccc(-c4ccc5[nH]c6nccc(Nc7ccccc7[N+](=O)[O-])c6c5c4)cc3)CC2)CC1` [Example 36, 6-(4-(4-(1-Methylpiperidin-4-yl)piperazin-1-yl)phenyl)-N-(2-nitrophenyl)-9H-pyrido[2,3-b]indol-4-amine]: the IC50 was 7100 nM.

For the compound `CN1CCN(c2ccc(-c3ccc4[nH]c5nccc(C#Cc6ccccc6)c5c4c3)cc2)CC1` [Example 37, 6-[4-(4-Methylpiperazin-1-yl)-phenyl]-4-phenylethynyl-9H-pyrido[2,3-b]indole], the IC50 amounted to 4400 nM. For the compound `COc1ccccc1C#Cc1ccnc2[nH]c3ccc(-c4ccc(N5CCN(C)CC5)cc4)cc3c12` [Example 38, 4-(2-Methoxyphenylethynyl)-6-[4-(4-methylpiperazin-1-yl)-phenyl]-9H-pyrido[2,3-b]indole], the IC50 was found to be 1500 nM.

Turning to `CN1CCN(c2ccc(-c3ccc4[nH]c5nccc(C#Cc6ccccc6C(F)(F)F)c5c4c3)cc2)CC1` [Example 39, 6-[4-(4-Methylpiperazin-1-yl)-phenyl]-4-(2-trifluoromethyl-phenylethynyl)-9H-pyrido[2,3-b]indole], the IC50 amounted to 1200 nM. As for `CN1CCN(c2ccc(-c3ccc4[nH]c5nccc(C#Cc6ccc(F)cc6)c5c4c3)cc2)CC1` [Example 40, 4-((4-Fluorophenyl)ethynyl)-6-[4-(4-methylpiperazin-1-yl)-phenyl]-9H-pyrido[2,3-b]indole], the half-inhibitory concentration (IC50) came to 920 nM. Consider `CN1CCN(c2ccc(-c3ccc4[nH]c5nccc(C#Cc6ccccc6F)c5c4c3)cc2)CC1` [Example 41, 4-((2-Fluorophenyl)ethynyl)-6-[4-(4-methylpiperazin-1-yl)-phenyl]-9H-pyrido[2,3-b]indole], for which the IC50 came out at 2500 nM.

`CN1CCN(c2ccc(-c3ccc4[nH]c5nccc(C#Cc6ccccc6Cl)c5c4c3)cc2)CC1` [Example 42, 4-((2-Chlorophenyl)ethynyl)-6-[4-(4-methylpiperazin-1-yl)-phenyl]-9H-pyrido[2,3-b]indole]: the IC50 came to 2100 nM. Consider `CC(C)[Si](C#Cc1ccnc2[nH]c3ccc(-c4ccc(N5CCN(C)CC5)cc4)cc3c12)(C(C)C)C(C)C` [Example 43, 6-(4-(4-Methylpiperazin-1-yl)phenyl)-4-((triisopropylsilyl)ethynyl)-9H-pyrido[2,3-b]indole], for which the IC50 is 3400 nM. With `CN1CCN(c2ccc(-c3ccc4[nH]c5nccc(-c6ccc(Oc7ccccc7)cc6)c5c4c3)cc2)CC1` [Example 48, 6-(4-(4-methylpiperazin-1-yl)phenyl)-4-(4-phenoxyphenyl)-9H-pyrido[2,3-b]indole], the IC50 was found to be 2100 nM. As for `CN1CCN(c2ccc(-c3ccc4[nH]c5nccc(-c6ccc(-c7ccc(F)cc7)nc6)c5c4c3)cc2)CC1` [Example 49, 4-(6-(4-fluorophenyl)pyridin-3-yl)-6-(4-(4-methylpiperazin-1-yl)phenyl)-9H-pyrido[2,3-b]indole], the IC50 turned out to be 3200 nM.

As to `COc1cc(-c2ccnc3[nH]c4ccc(-c5ccc(N6CCN(C)CC6)cc5)cc4c23)c(OC)cc1C(=O)c1ccccc1` [Example 50, (2,5-dimethoxy-4-(6-(4-(4-methylpiperazin-1-yl)phenyl)-9H-pyrido[2,3-b]indol-4-yl)phenyl)(phenyl)methanone], the IC50 was found to be 1100 nM.

For the compound `COc1cc(C(=O)c2ccccc2)c(O)cc1-c1ccnc2[nH]c3ccc(-c4ccc(N5CCN(C)CC5)cc4)cc3c12` [Example 51, (2-hydroxy-5-methoxy-4-(6-(4-(4-methylpiperazin-1-yl)phenyl)-9H-pyrido[2,3-b]indol-4-yl)phenyl)(phenyl)methanone], the IC50 is 720 nM.

With `COc1cc(-c2ccnc3[nH]c4ccc(-c5ccc(N6CCN(C)CC6)cc5)cc4c23)c(OC)cc1Cc1ccccc1` [Example 52, 4-(4-benzyl-2,5-dimethoxyphenyl)-6-(4-(4-methylpiperazin-1-yl)phenyl)-9H-pyrido[2,3-b]indole], the IC50 turned out to be 810 nM. Take `COc1cc(Cc2ccccc2)c(O)cc1-c1ccnc2[nH]c3ccc(-c4ccc(N5CCN(C)CC5)cc4)cc3c12` [Example 53, 2-benzyl-4-methoxy-5-(6-(4-(4-methylpiperazin-1-yl)phenyl)-9H-pyrido[2,3-b]indol-4-yl)phenol]: the IC50 stood at 1800 nM.
